Results as given in ChEMBL document CHEMBL1201862, “PubChem BioAssay data set” (2004).
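Cultured in 96-well plates, cells were exposed to test compound for 48 hours across five concentrations. Here, GI50 denotes the concentration required for 50% inhibition of growth.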 Calls of active or inactive are those of the source. No stated cut-off is given here; in the data, active = GI50 up to about 1.1 µM and inactive = higher.

Legend:
Assay in all cases: inhibition of tumour cell growth, NCI panel, 48 h
[1] = test system: NCI-H460
[2] = test system: TK-10
[3] = test system: MOLT-4
[4] = test system: SK-MEL-5
[5] = test system: A549
[6] = test system: SF-295
[7] = test system: HCT-116
[8] = test system: CAKI-1
[9] = test system: UACC-62
[10] = test system: MDA-MB-435
[11] = test system: LOX IMVI
[12] = test system: T47D
[13] = test system: IGROV-1
[14] = test system: NCI-H23
[15] = test system: OVCAR-4
[16] = test system: NCI/ADR-RES
[17] = test system: U-251
[18] = test system: CCRF-CEM
[19] = test system: SNB-75
[20] = test system: HOP-92

SMILES | GI50 [1] | GI50 [2] | GI50 [3] | GI50 [4] | GI50 [5] | GI50 [6] | GI50 [7] | GI50 [8] | GI50 [9] | GI50 [10] | GI50 [11] | GI50 [12] | GI50 [13] | GI50 [14] | GI50 [15] | GI50 [16] | GI50 [17] | GI50 [18] | GI50 [19] | GI50 [20]
Oc1ccc(-c2nc3ccc(F)cc3s2)cc1 | 24.1 µM (inactive) | 16 µM (inactive) | 27 µM (inactive) | 18 µM (inactive) | 19.8 µM (inactive) | 19.1 µM (inactive) | 18.2 µM (inactive) | 19.7 µM (inactive) | 17.6 µM (inactive) | 20.4 µM (inactive) | 20.4 µM (inactive) | 15.1 µM (inactive) | 16.9 µM (inactive) | 19.7 µM (inactive) | 23 µM (inactive) | 21.1 µM (inactive) | 19.2 µM (inactive) | – | – | –
C=C[C@@H]1C[C@]2(C(=O)OC)Cc3nc4ccccc4nc3CC(C(=O)OC)=C2O1 | > 100 µM (inactive) | > 100 µM (inactive) | 42.5 µM (inactive) | 78.9 µM (inactive) | > 100 µM (inactive) | 93.5 µM (inactive) | > 100 µM (inactive) | > 100 µM (inactive) | > 100 µM (inactive) | 47.8 µM (inactive) | 45.6 µM (inactive) | 85.5 µM (inactive) | 61.2 µM (inactive) | 69.8 µM (inactive) | > 100 µM (inactive) | > 100 µM (inactive) | 92.7 µM (inactive) | 41.8 µM (inactive) | – | –
COc1cc(NCC2COc3c(ccc(OC)c3OC)C2=O)c([N+](=O)[O-])cc1OC (stereo not drawn) | 35.2 µM (inactive) | > 100 µM (inactive) | 16.4 µM (inactive) | 44.3 µM (inactive) | > 100 µM (inactive) | 66.1 µM (inactive) | > 100 µM (inactive) | > 100 µM (inactive) | 77.8 µM (inactive) | > 100 µM (inactive) | > 100 µM (inactive) | 26.1 µM (inactive) | > 100 µM (inactive) | > 100 µM (inactive) | 82.4 µM (inactive) | > 100 µM (inactive) | > 100 µM (inactive) | 53.2 µM (inactive) | 60.1 µM (inactive) | –
OCC1NCC(O)C(O)C1O (stereo not drawn) | > 100 µM (inactive) | > 100 µM (inactive) | > 100 µM (inactive) | > 100 µM (inactive) | > 100 µM (inactive) | > 10 µM (inactive) | > 100 µM (inactive) | > 100 µM (inactive) | > 100 µM (inactive) | > 100 µM (inactive) | – | – | > 100 µM (inactive) | > 100 µM (inactive) | > 100 µM (inactive) | – | > 100 µM (inactive) | > 100 µM (inactive) | > 100 µM (inactive) | > 100 µM (inactive)
CN(CO)c1nc(N(C)CO)nc(N(C)CO)n1 [TRIMELAMOL] | – | 31.8 µM (inactive) | 27.2 µM (inactive) | 6.95 µM (inactive) | 12.8 µM (inactive) | 26.8 µM (inactive) | – | 23.8 µM (inactive) | 13.3 µM (inactive) | 20.1 µM (inactive) | 9.86 µM (inactive) | 32.1 µM (inactive) | 23.7 µM (inactive) | 19.3 µM (inactive) | – | – | 19.5 µM (inactive) | 5.78 µM (inactive) | 18.5 µM (inactive) | –
S=C(c1c[nH]c2ccccc12)N1CCOCC1 | > 100 µM (inactive) | > 100 µM (inactive) | > 100 µM (inactive) | > 100 µM (inactive) | – | > 100 µM (inactive) | > 100 µM (inactive) | > 100 µM (inactive) | > 100 µM (inactive) | > 100 µM (inactive) | > 100 µM (inactive) | – | 36.3 µM (inactive) | > 100 µM (inactive) | – | > 100 µM (inactive) | > 100 µM (inactive) | > 100 µM (inactive) | 0.52 µM (active) | –
COCCN1C(=O)C2c3[nH]c4ccccc4c3C3CCC(C(C)(C)C)CC3C2C1=O (stereo not drawn) | 14.8 µM (inactive) | > 10 µM (inactive) | > 10 µM (inactive) | 17 µM (inactive) | 19.1 µM (inactive) | 18.6 µM (inactive) | 16.4 µM (inactive) | 23.1 µM (inactive) | > 10 µM (inactive) | 18.7 µM (inactive) | – | 20 µM (inactive) | 23.2 µM (inactive) | 22.6 µM (inactive) | 16.9 µM (inactive) | 17.4 µM (inactive) | 15.5 µM (inactive) | 22.6 µM (inactive) | 17.5 µM (inactive) | –
C=C1CCC2[C@](C)(CCC[C@]2(C)C(=O)O)[C@@H]1CCc1ccoc1 (stereo partly drawn) | 33.9 µM (inactive) | 24.2 µM (inactive) | 32.5 µM (inactive) | 36.6 µM (inactive) | 34.5 µM (inactive) | 47.5 µM (inactive) | 33.7 µM (inactive) | 32.8 µM (inactive) | 35.2 µM (inactive) | 41.3 µM (inactive) | 16.9 µM (inactive) | 57.8 µM (inactive) | 32.4 µM (inactive) | 21.4 µM (inactive) | 48.6 µM (inactive) | 38.5 µM (inactive) | – | 40.7 µM (inactive) | 67.3 µM (inactive) | –
O=CNc1ncn[nH]1 | > 100 µM (inactive) | > 100 µM (inactive) | > 100 µM (inactive) | > 100 µM (inactive) | > 100 µM (inactive) | > 100 µM (inactive) | > 100 µM (inactive) | > 100 µM (inactive) | > 100 µM (inactive) | > 100 µM (inactive) | > 100 µM (inactive) | > 100 µM (inactive) | > 100 µM (inactive) | > 100 µM (inactive) | > 100 µM (inactive) | > 100 µM (inactive) | > 100 µM (inactive) | > 100 µM (inactive) | > 100 µM (inactive) | –
CC(C)NC(=O)OCC[S+]([O-])c1c(Cl)c(Cl)nn1C (stereo not drawn) | > 100 µM (inactive) | > 100 µM (inactive) | 34.8 µM (inactive) | 40.9 µM (inactive) | > 100 µM (inactive) | > 100 µM (inactive) | 33.3 µM (inactive) | 37.6 µM (inactive) | 26.6 µM (inactive) | 22.3 µM (inactive) | 0.724 µM (active) | 38.1 µM (inactive) | 37.9 µM (inactive) | 42.9 µM (inactive) | 49.8 µM (inactive) | 42.8 µM (inactive) | 33.2 µM (inactive) | 27.5 µM (inactive) | > 100 µM (inactive) | –
O=C1CC2C(=O)c3ccccc3CC2c2ccccc21 (stereo not drawn) | 33 µM (inactive) | 87.9 µM (inactive) | 22.4 µM (inactive) | – | 36.3 µM (inactive) | 49.2 µM (inactive) | 38.6 µM (inactive) | – | 35.7 µM (inactive) | 24.1 µM (inactive) | 38.5 µM (inactive) | 49.2 µM (inactive) | 27 µM (inactive) | – | 29.5 µM (inactive) | – | 57.4 µM (inactive) | – | 6.49 µM (inactive) | 16.4 µM (inactive)
CCN(CC)c1ccc2c(c1)OC(=O)C(c1nnc(-c3ccc([N+](=O)[O-])cc3)o1)C2 (stereo not drawn) | > 100 µM (inactive) | > 100 µM (inactive) | > 100 µM (inactive) | > 100 µM (inactive) | > 100 µM (inactive) | > 100 µM (inactive) | > 100 µM (inactive) | > 100 µM (inactive) | > 100 µM (inactive) | > 100 µM (inactive) | > 100 µM (inactive) | – | > 100 µM (inactive) | > 100 µM (inactive) | > 100 µM (inactive) | > 100 µM (inactive) | > 100 µM (inactive) | 34.2 µM (inactive) | > 100 µM (inactive) | > 100 µM (inactive)
CC1CCCN(CP(=O)(c2ccccc2)c2ccccc2)C1 (stereo not drawn) | 92.5 µM (inactive) | > 100 µM (inactive) | – | > 100 µM (inactive) | > 100 µM (inactive) | > 100 µM (inactive) | 93.8 µM (inactive) | > 100 µM (inactive) | > 100 µM (inactive) | > 100 µM (inactive) | > 100 µM (inactive) | – | > 100 µM (inactive) | > 100 µM (inactive) | 94.4 µM (inactive) | > 100 µM (inactive) | > 100 µM (inactive) | – | > 100 µM (inactive) | > 100 µM (inactive)
O=C1C[C@H]2CC3(CC[C@H]2CN1)OCCO3 | > 100 µM (inactive) | > 100 µM (inactive) | > 100 µM (inactive) | > 100 µM (inactive) | > 100 µM (inactive) | > 100 µM (inactive) | > 100 µM (inactive) | > 100 µM (inactive) | > 100 µM (inactive) | – | > 100 µM (inactive) | – | > 100 µM (inactive) | > 100 µM (inactive) | > 100 µM (inactive) | – | > 100 µM (inactive) | > 100 µM (inactive) | > 100 µM (inactive) | > 100 µM (inactive)
c1ccc(SCCCC(Sc2ccccc2)Sc2ccccc2)cc1 | > 100 µM (inactive) | > 100 µM (inactive) | > 100 µM (inactive) | > 100 µM (inactive) | > 100 µM (inactive) | > 100 µM (inactive) | > 100 µM (inactive) | > 100 µM (inactive) | > 100 µM (inactive) | – | > 100 µM (inactive) | – | > 100 µM (inactive) | > 100 µM (inactive) | > 100 µM (inactive) | – | > 100 µM (inactive) | > 100 µM (inactive) | > 100 µM (inactive) | 49.9 µM (inactive)
Cc1ccccc1C(=O)c1ccccc1O | > 100 µM (inactive) | > 100 µM (inactive) | > 100 µM (inactive) | > 100 µM (inactive) | > 100 µM (inactive) | > 100 µM (inactive) | > 100 µM (inactive) | > 84.3 µM (inactive) | > 100 µM (inactive) | – | > 100 µM (inactive) | – | > 100 µM (inactive) | > 100 µM (inactive) | > 100 µM (inactive) | – | > 100 µM (inactive) | > 100 µM (inactive) | > 79.6 µM (inactive) | > 100 µM (inactive)
